Assay results published in patent US20120322153A1, “REPROGRAMMING A CELL BY ACTIVATION OF THE ENDOGENOUS TRANSCRIPTION FACTOR NETWORK” (NUPOTENTIAL, INC., priority 2009, published 2012).
Like-named read-outs stand apart in the source and are kept apart here.

What was measured:
HDAC = settings: order of magnitude of affinity for HDAC; cited from earlier work
[1] = test system: Human adipose tissue derived adult stem cells; assay: ES cell-like colony formation of hADS cells pre-treated with HDAC inhibitor, then OSKM lentivirus; format: cell-based
Procedure: Human adipose tissue derived adult stem cells were maintained at 37° C. in 95% humidity and 5% CO2 in Dulbecco's modified eagle medium (DMEM, Cell Application) containing 10% fetal bovine serum, 0.5% penicillin and streptomycin. Cells were grown, trypsinized and counted, then diluted in the above standard growth medium to achieve appropriate plating density (1×10^5 cells/well in 6 well plate, Corning) prior to HDAC inhibitor treatment.
Pre-treatment. […] The cell culture medium was changed every other day with new treatment.
Lentivirus infection. Lentivirus that over-expresses mouse Oct-4, Sox2, c-Myc, and Klf4 was purchased from Millipore, (Billerica, Mass.). One day before lentivirus infection, human adipose tissue-derived cells with or without HDAC inhibitor pretreatment were trypsinized and plated at a density of 1×10^5 cells/well in a 6 well plate (Corning) using standard growth medium described above. The following day, the medium was replaced with 1 ml of fresh medium containing 0.6 ug/ml of polybrene (Sigma-Aldrich, St. Louis, Mo.), and thawed lentivirus (MOI 75) was added directly to the wells following the manufacturer's instruction. Cells were maintained at 37° C. in 95% humidity and 5% CO2 incubator overnight. On the next day, lentiviral infection was repeated after cells were washed 3 times with 1×PBS. Lentivirus infected cells were maintained in the standard growth medium for 4˜5 days and trypsinized, and plated on irradiated MEF feeder layers (ATCC, Manassas, Va.) with mTeSR medium (Stem Cell Technology).

[2] = test system: Human adipose tissue derived adult stem cells; assay: Immunohistochemistry for Sox-2 and Oct4 in ES cell-like colonies from hADS cells; format: cell-based; settings: pre-treatment with TSA
Procedure: Cells were fixed with fixative (Ethanol:acetic acid:H2O=7:2:1) for 10 minutes. After rinse 3 times with 10% FBS in 1×PBS for 5 min each and cells were incubated I hrs with primary antibodies for Oct4 (1:200 dilution, Abeam), or Sox2 (1:200 dilution, Abeam) in 10% FBS containing 0.2% saponin (Sigma) and following alexaFluor-conjugated secondary antibody (1:200 dilution, Invitrogen).

mouse embryos = settings: mice, when properly dosed; cited from earlier work
BJFs (ATCC) = assay: HDAC and DNMT1 gene expression in BJFs treated with VPA; format: cell-based
Procedure: FIG. 4C is a bar graph reporting HDAC and DNMT1 gene expression in BJFs (ATCC) treated with […] Valproic acid (VPA) for 7 days.
Expression levels for shRNA-targeted genes and pluripotency transcription factor were quantified by real-time RT-PCR. Briefly, total RNA was prepared from cultures using Trizol Reagent (Life Technology) and the RNeasy Mini RNA isolation kit (Qiagen) with DNase I digestion according to manufacturer's protocol. Total RNA (1 μg) from each sample was subjected to oligo(dT)-primed reverse transcription (Invitrogen) to cDNA. Real-time PCR reactions were performed with PCR master mix on a 7300 real-time PCR system (Applied Biosystems). For each sample, 1 μl of diluted cDNA (1:10) was added as template in the PCR reactions. Expression levels were compared to those in untreated and non-targeting shRNA control cells relative to cyclophillin.

[3] = used as antiepileptic drug during pregnancy; a few percent of born children; cited from earlier work
[4] = test system: Mouse embryonic fibroblasts; settings: Recombinant protein, cited from earlier work
Human fibroblasts = settings: Retroviral infection, cited from earlier work
[5] = 5 days pre-treatment, 9 days after OSKM viral infection
[6] = 5 days pre-treatment, 11 days after OSKM viral infection

Row | Molecule | Affinity Range (HDAC) | other results
1 | O=C(/C=C/c1ccc(CN(CCO)CCc2c[nH]c3ccccc23)cc1)NO [NVP-LAQ824] | nM | 
2 | Oxamflatin | uM | 
3 | CCCC(=O)OCOC(=O)C(C)(C)C [AN-9, Pivaloyloxymethyl butyrate, Pivaloyloxymethyl butyrate] | uM | 
4 | CC(/C=C/C(=O)NO)=C\[C@@H](C)C(=O)c1ccc(N(C)C)cc1 [TSA, Trichostatin A] | nM | ES cell-like colony formation [1, 5]: multiple colonies displaying morphologies consistent with embryonic stem cells or reprogrammed cells were observed; ES cell-like colony formation [1, 6]: ES cell-like colony formation was observed; Increase in colony formation vs no pretreatment ([1]; 5 days pre-treatment, then OSKM lentivirus): two-fold; Number of ES cell-like colonies ([1]; First Experiment): 24; Number of ES cell-like colonies ([1]; Second Experiment): 21; Somatic cell reprogramming efficiency (number of formed colonies) ([1]; pre-treatment prior to four-factor transfection, TSA 1 μM): increased; Sox-2 and Oct4 expression in ES cell-like colonies [2]: showed Sox-2 and Oct4 expression
5 | S=C=NCCCCc1ccccc1 [Phenylbutyl isothiocyanate] | uM | 
6 | O=C(CCCCCCCC(=O)NO)NO [ABHA (azeleic bishydroxamic acid), azeleic bishydroxamic acid] | uM | 
7 | CCCC(CCC)C(=O)O [VPA, Valproic acid] | mM | Teratogenicity (mouse embryos): teratogenic in the majority of mouse embryos; DNMT1 gene expression (BJFs (ATCC); BJFs, 500 nM VPA, 7 days, vs control (MC) cells, P<0.005): significantly up regulated; HDAC1 gene expression (BJFs (ATCC); BJFs, 500 nM VPA, 7 days, vs control (MC) cells, P<0.01): significantly up regulated; SIRT4 gene expression (BJFs (ATCC); BJFs, 500 nM VPA, 7 days, vs control (MC) cells, P<0.05): significantly up regulated; Compensatory expression of HDACs (HDAC9, HDAC5, HDAC11, SIRT4, SIRT5) (BJFs (ATCC); treatment of cells with VPA (FIG. 4C)): induced; Birth defects (neural tube closure defects and other malformations) [3]: may induce birth defects; Efficiency ([4]; 3 iPS factors (OSK) + VPA): 0.002%; Efficiency ([4]; 4 iPS factors (OSKM) + VPA): 0.006%; ES cell-like colony formation [1, 5]: Colonies displaying characteristics of embryonic stem cells or reprogrammed cells were observed; ES cell-like colony formation [1, 6]: Colonies displaying characteristics of embryonic stem cells or reprogrammed cells were observed; Efficiency (Human fibroblasts; 2 iPS factors (OS) + VPA): 0.001%; Efficiency (Human fibroblasts; 3 iPS factors (OSK) + VPA): 1%
8 | CCN(CC)Cc1ccc2cc(COC(=O)Nc3ccc(C(=O)NO)cc3)ccc2c1 [ITF2357] | nM | 
9 | Nc1ccccc1NC(=O)c1ccc(CNC(=O)OCc2cccnc2)cc1 [MS-275 (same as MS-27-275)] | nM | 
10 | Nc1ccccc1NC(=O)c1ccc(CNc2nccc(-c3cccnc3)n2)cc1 [MGCD0103] | nM | 
11 | C[S+]([O-])CCCCNC(=S)SC[C@H](N)C(=O)O (some centres unmarked) [SFN-cysteine (SFN-Cys), SFN-cysteine] | uM | 
12 | C[S+]([O-])CCCCN=C=S (centres unmarked) [Sulforaphane (SFN), Sulforaphane] | uM | 
13 | Suberoylanilide hydroxamic acid | uM | 
14 | O=C(CCCCCCC(=O)Nc1cccnc1)NO [Pyroxamide] | uM | 
15 | O=C(CCCCCN1C(=O)c2cccc3cccc(c23)C1=O)NO [Scriptaid] |  | ES cell-like colony formation [1, 5]: ES cell-like colony formation was observed; ES cell-like colony formation [1, 6]: multiple colonies displaying morphologies consistent with embryonic stem cells or reprogrammed cells were observed
16 | O=C(/C=C/c1cccc(C(=O)NO)c1)NO [m-Carboxycinnamic acid bishydroxamic acid] | uM | 
17 | CC(=O)Nc1ccc(C(=O)Nc2ccccc2N)cc1 [CI-994(N-acetyl dinaline), N-acetyl dinaline] | nM | 
18 | C=CCSSCC=C [Diallyl disulfide (DADS), Diallyl disulfide] | uM | 
19 | CCCC(=O)[O-].[Na+] [Butyrate/Sodium Butyrate, Sodium Butyrate] | mM | 
20 | O=C(/C=C/c1ccc(CNC(=O)c2ccc(N3CCCC3)cc2)cc1)NO [SK-7068] | nM | 
21 | O=C(CCCCCCC(=O)NO)NO [SBHA (suberic bishydroxamate), suberic bishydroxamate] | uM | 
22 | CC(=O)N[C@@H](CSC(=S)NCCCC[S+](C)[O-])C(=O)O (some centres unmarked) [SFN-N-acetylcysteine (SFN-NAC), SFN-N-acetylcysteine] | uM | 
23 | CN(C)c1ccc(C(=O)NCc2ccc(/C=C/C(=O)NO)cc2)cc1 [SK-7041] | nM | 
24 | O=C(/C=C/c1cccc(S(=O)(=O)Nc2ccccc2)c1)NO [PDX-101] | uM | 
